The source of these data is US10752900B2, “Oligonucleotides for modulating gene expression and uses thereof” (BIOGENERA S.P.A., priority 2012, dated 2020).

For the series, the system named is MYCN gene. Put plainly: QT-PCR, MYCN mRNA in SKNBE2c cells. The class given is cell-based, human. Conditions: Table 6. The protocol:
For the purpose of assessing the ability of the oligonucleotides of the present invention to modulate the expression of the target genes, their ability to reduce the quantity of messenger RNA was analyzed using the Real-Time PCR technique. For this purpose, use was made of 24-well plates, which were seeded with 5.0×10^4 cells with 0.3 ml of OPTI-MEM (GIBCO BRL) medium, 4% FBS and 2 mM L-glutammine (experiments in triplicate) per well. The cells were incubated for 24 hours at 37° C., in an atmosphere containing 5% CO2 to permit adherence to the base of the wells. For each well, the oligonucleotides were analyzed at the following final concentrations: • the antisense oligonucleotides siRNA and siRNA gapmer (i.e. the oligonucleotides containing one or more monomers of chemically modified nucleic acids at the 3' or 5' end, while in the central portion they have monomers of nucleic acids that have not been modified or have been modified at the level of the phosphodiester bond as a phosphorothioate bond) were used at 200 nM; • the antisense oligonucleotides containing phosphorothioate DNA monomers, the RNA antigene oligonucleotides (agRNA) and the oligonucleotides containing DNA monomers and LNA monomers were used at 10 μM; • the morpholino oligonucleotides were used at a concentration of 1 μM, and • the PNA oligonucleotides were administered at a concentration of 1 μM. The cells were treated with the oligonucleotides, adding FBS up to 4% 6 hours after administration of the same. After 24 hours the total RNA was extracted from each well and purified using the RNeasy Mini Kit (QIAGEN). Assays were performed on 8 cell lines obtained from 5 different human tumours which are correlated with MYCN expression, i.e.: • as a neuroblastoma model use was made of the cell lines Kelly, IMR-32 (where the MYCN gene is amplified and superexpressed) and SKNBE2c and LAN1 (where the MYCN gene is amplified and superexpressed and the p53 gene is mutated); • as a rabdomiosarcoma model use was made of the cell line RH30, where the MYCN gene is amplified and superexpressed; • as a Wilms' tumour model use was made of the cell line WiT49, where the MYCN gene is amplified and superexpressed; • as a retinoblastoma model use was made of the cell line Y79, where the MYCN gene is amplified and superexpressed; and • as a model of small cell lung cancer use was made of the cell line H69 where the MYCN gene is amplified and superexpressed. As a control, use was made of the same cell lines as listed above treated with sterile water instead of oligonucleotides. Each RNA sample was quantified (in duplicate) using a NanoDrop ND-1000 spectrophotometer (NanoDrop Technologies). The first strand of cDNA was produced using the cDNA Synthesis Kit for RT-PCR (Roche). For the cDNA synthesis reaction a total of 1 μg of RNA was used. For the real-time PCR, 10 ng of cDNA in a final volume of 20 μl was used with SYBR Green Master Mix 2× (Applied Biosystems) (3 identical experiments were conducted in triplicate). Two housekeeping genes were used as positive controls: GAPDH and beta-actin (ACTB). The conditions of the QT-PCR reaction were: 10 min at 95° C., 20 sec at 95° C., and 30 sec at 60° C., for 50 cycles. The PNAs having SEQ ID NO: 1-12 were also tested on different cell lines which overexpress MYCN (Kelly, SKNBE2c, RH30, […] 1 and H69). The results are shown in Table 6 and confirm the selectivity and specificity of the inhibition effect of the PNAs on the product of protein translation of the MYCN gene.

For the substance “SEQ ID NO: 12: PNA antigene oligonucleotide TGTCTGGACGCGCTGG directed against MYCN (all peptide nucleic acid (PNA))”, the “SKNBE2c % mRNA” value is listed as 40%. The result for “SEQ ID NO: 5: PNA antigene oligonucleotide GCTGGGTGGATGCGGG directed against MYCN (PNA backbone, chemistry not fully specified)” reads 59%; that for “SEQ ID NO: 2: PNA antigene oligonucleotide GGGTGGATGCGGGGGG directed against MYCN (PNA backbone, chemistry not fully specified)”, 75%. Turning to “SEQ ID NO: 11: PNA antigene oligonucleotide GGGAACTGTGTTGGAG directed against MYCN (PNA backbone, chemistry not fully specified)”, the “SKNBE2c % mRNA” value was 40%. “SEQ ID NO: 6: PNA antigene oligonucleotide TGGACGCGCTGGGTGG directed against MYCN (PNA backbone, chemistry not fully specified)”: the “SKNBE2c % mRNA” value is listed as 62%.

Consider “SEQ ID NO: 9: PNA antigene oligonucleotide CCCTGCAGTCGGCGGG directed against MYCN (all peptide nucleic acid (PNA))”, for which the “SKNBE2c % mRNA” value is recorded as 58%.

As for “SEQ ID NO: 4: PNA antigene oligonucleotide GTCGGCGGGAGGTAAG directed against MYCN (PNA backbone, chemistry not fully specified)”, the “SKNBE2c % mRNA” value amounted to 60%. On to “SEQ ID NO: 8: PNA antigene oligonucleotide GTCTGGACGCGCTGGG directed against MYCN (all peptide nucleic acid (PNA))”, for which the “SKNBE2c % mRNA” value is recorded as 62%.

With “SEQ ID NO: 10: PNA antigene oligonucleotide CGGCCGCGGGCCGCCA directed against MYCN (PNA backbone, chemistry not fully specified)”, the “SKNBE2c % mRNA” value was 41%. Turning to “SEQ ID NO: 7: PNA antigene oligonucleotide CGCGCTGGGTGGATGC directed against MYCN (all peptide nucleic acid (PNA))”, the “SKNBE2c % mRNA” value worked out at 60%. The result for “SEQ ID NO: 1: PNA ATGCCGGGCATGATCT against MYCN; subject of patent EP 1618195, control sequence used for comparison (all peptide nucleic acid (PNA)) [reference compound]” reads 41%. On to “SEQ ID NO: 3: PNA antigene oligonucleotide GATGCGGGGGGCTCCT directed against MYCN (PNA backbone, chemistry not fully specified)”, for which the “SKNBE2c % mRNA” value was found to be 68%.
